# Data from BindingDB's records for doi:10.1021/jm990967h (Glaxo Wellcome Medicines Research Centre, 2000).
# Values joined by “and” are separate entries in the source; they are usually repeats but may differ in a detail not shown here. Identical values can stand only once.
# Target: Gastrin/cholecystokinin type B receptor (Cavia porcellus)
# Assay: In vitro inhibition of binding of [3H]pCCK-8 against Cholecystokinin type B receptor of guinea pig cerebral cortex membranes
row,Structure (SMILES),Ki
1,CC(C)(C)CCN1C(=O)C(NC(=O)Nc2ccccc2)C(=O)N(c2ccccc2)c2ccccc21 (stereo not given),0.676 nM
2,O=C(O)CCCOc1ccc(NC(=O)NC2C(=O)N(CC34C[C@H]5C[C@@H](C3)C[C@@H](C4)C5)c3ccccc3N(c3ccccc3)C2=O)cc1 (stereo not given in full),3.8 nM
3,O=C(Nc1ccccc1)NC1C(=O)N(c2ccccc2)c2ccccc2N(C2CC3CCC2C3)C1=O (stereo not given),1.5 nM
4,CC(O)C(O)Nc1cccc(NC(=O)NC2C(=O)N(CC34C[C@H]5C[C@@H](C3)C[C@@H](C4)C5)c3ccccc3N(c3ccccc3)C2=O)c1 (stereo not given in full),1.3 nM and 0.676 nM
5,CN(C)c1ccc(NC(=O)NC2C(=O)N(CCC3CCCC3)c3ccccc3N(c3ccccc3F)C2=O)cc1 (stereo not given),4.7 nM
6,O=C(Nc1cccc(O)c1)NC1C(=O)N(CC23C[C@H]4C[C@@H](C2)C[C@@H](C3)C4)c2ccccc2N(c2ccccc2)C1=O (stereo not given in full),0.575 nM
7,Nc1cccc(NC(=O)NC2C(=O)N(CC34C[C@H]5C[C@@H](C3)C[C@@H](C4)C5)c3ccccc3N(c3ccccc3)C2=O)c1 (stereo not given in full),0.295 nM
8,CN(C)c1cccc(NC(=O)NC2C(=O)N(CCC34C[C@H]5C[C@@H](C3)C[C@@H](C4)C5)c3ccccc3N(c3ccccc3)C2=O)c1 (stereo not given in full),13 nM
9,O=C(Nc1ccccc1)NC1C(=O)N(CCc2ccccc2)c2ccccc2N(c2ccccc2)C1=O (stereo not given),8.3 nM
10,O=C(Nc1cccc(Cl)c1)NC1C(=O)N(c2ccccc2)c2ccccc2N(C2CC3CCC2C3)C1=O (stereo not given),1.7 nM
11,CC(C)CC(C)N1C(=O)C(NC(=O)Nc2ccccc2)C(=O)N(c2ccccc2)c2ccccc21 (stereo not given),2.1 nM
12,CC(C)CCN1C(=O)C(NC(=O)Nc2cccc(N(C)C)c2)C(=O)N(c2ccccc2F)c2ccccc21 (stereo not given),0.209 nM and 1.9 nM and 0.251 nM
13,O=C(Nc1cccc(C(=O)OCCN2CCOCC2)c1)NC1C(=O)N(CC23C[C@H]4C[C@@H](C2)C[C@@H](C3)C4)c2ccccc2N(c2ccccc2)C1=O (stereo not given in full),0.562 nM
14,CC(C)(C)CCN1C(=O)C(NC(=O)Nc2ccccc2)C(=O)N(c2ccccc2F)c2ccccc21 (stereo not given),0.955 nM
15,CN(C)c1cccc(NC(=O)NC2C(=O)N(CC34C[C@H]5C[C@@H](C3)C[C@@H](C4)C5)c3ccccc3N(c3ccccc3)C2=O)c1 (stereo not given in full),1.1 nM
16,CCCCN1C(=O)C(NC(=O)Nc2ccccc2)C(=O)N(c2ccccc2)c2ccccc21 (stereo not given),6.2 nM
17,CC(C)Cn1nnc(-c2cccc(NC(=O)NC3C(=O)N(CCC(C)(C)C)c4ccccc4N(c4ccccc4)C3=O)c2)n1 (stereo not given),2.5 nM
18,O=C(Nc1cccc([N+](=O)[O-])c1)NC1C(=O)N(CC23C[C@H]4C[C@@H](C2)C[C@@H](C3)C4)c2ccccc2N(c2ccccc2)C1=O (stereo not given in full),1.9 nM
19,O=C(Nc1ccc(O)cc1)NC1C(=O)N(CC23C[C@H]4C[C@@H](C2)C[C@@H](C3)C4)c2ccccc2N(c2ccccc2)C1=O (stereo not given in full),0.661 nM
20,CC(C)(C)CCN1C(=O)C(NC(=O)Nc2cccc(OC(F)(F)F)c2)C(=O)N(c2ccccc2)c2ccccc21 (stereo not given),2.9 nM
21,O=C(Nc1cccc(C(=O)O)c1)NC1C(=O)N(CC23C[C@H]4C[C@@H](C2)C[C@@H](C3)C4)c2ccccc2N(c2ccccc2)C1=O (stereo not given in full),0.977 nM
22,O=C(Nc1ccc(Br)cc1)NC1C(=O)N(CC23C[C@H]4C[C@@H](C2)C[C@@H](C3)C4)c2ccccc2N(c2ccccc2)C1=O (stereo not given in full),1.4 nM
23,CN(C)c1cccc(NC(=O)NC2C(=O)N(CCC(C)(C)C)c3ccccc3N(c3ccccc3F)C2=O)c1 (stereo not given),0.603 nM

row,Structure (SMILES),Ki
1,CSc1cccc(NC(=O)NC2C(=O)N(CCC34C[C@H]5C[C@@H](C3)C[C@@H](C4)C5)c3ccccc3N(c3ccccc3)C2=O)c1 (stereo not given in full),60 nM
2,O=C(Nc1cccc(C2N=NN=N2)c1)NC1C(=O)N(CCC2CCCC2)c2ccccc2N(c2ccccc2F)C1=O (stereo not given),0.224 nM
3,O=C(Nc1ccccc1)NC1C(=O)N(CCC23C[C@H]4C[C@@H](C2)C[C@@H](C3)C4)c2ccccc2N(c2ccccc2)C1=O (stereo not given in full),34 nM
4,CC(C)(C1CCCC1)N1C(=O)C(NC(=O)Nc2cccc(C3N=NN=N3)c2)C(=O)N(c2ccccc2)c2ccccc21 (stereo not given),1.5 nM
5,CCOC(=O)CCCOc1ccc(NC(=O)NC2C(=O)N(CC34C[C@H]5C[C@@H](C3)C[C@@H](C4)C5)c3ccccc3N(c3ccccc3)C2=O)cc1 (stereo not given in full),5.2 nM
6,CSc1cccc(NC(=O)NC2C(=O)N(CCC(C)(C)C)c3ccccc3N(c3ccccc3F)C2=O)c1 (stereo not given),0.724 nM
7,CN(C)c1cccc(NC(=O)NC2C(=O)N(c3ccccc3)c3ccccc3N(C3[C@H]4C[C@@H]5C[C@@H](C[C@H]3C5)C4)C2=O)c1 (stereo not given in full),2.3 nM
8,CSc1cccc(NC(=O)NC2C(=O)N(CCC(C)C)c3ccccc3N(c3ccccc3F)C2=O)c1 (stereo not given),0.331 nM
9,CC(C)(C)CCN1C(=O)C(NC(=O)Nc2cccc(C#N)c2)C(=O)N(c2ccccc2)c2ccccc21 (stereo not given),0.646 nM
10,CN(C)c1cccc(NC(=O)NC2C(=O)N(CCC3CCCC3)c3ccccc3N(c3ccccc3F)C2=O)c1 (stereo not given),0.676 nM
11,CSc1cccc(NC(=O)NC2C(=O)N(CCC(C)(C)C)c3ccccc3N(c3ccccc3)C2=O)c1 (stereo not given),0.49 nM
12,O=C(Nc1cccc(CO)c1)NC1C(=O)N(CC23C[C@H]4C[C@@H](C2)C[C@@H](C3)C4)c2ccccc2N(c2ccccc2)C1=O (stereo not given in full),0.178 nM
13,CC(C)C(C)CN1C(=O)C(NC(=O)Nc2ccccc2)C(=O)N(c2ccccc2)c2ccccc21 (stereo not given),1.1 nM
14,O=C(Nc1ccccc1)NC1C(=O)N(CC2[C@H]3C[C@@H]4C[C@@H](C[C@H]2C4)C3)c2ccccc2N(c2ccccc2)C1=O (stereo not given in full),1.9 nM
15,CN(C)c1cccc(NC(=O)NC2C(=O)N(c3ccccc3)c3ccccc3N(C3CC4CCC3C4)C2=O)c1 (stereo not given),1 nM
16,O=Cc1cccc(NC(=O)NC2C(=O)N(CC34C[C@H]5C[C@@H](C3)C[C@@H](C4)C5)c3ccccc3N(c3ccccc3)C2=O)c1 (stereo not given in full),0.955 nM
17,CC(C)CCN1C(=O)C(NC(=O)Nc2ccccc2)C(=O)N(c2ccccc2F)c2ccccc21 (stereo not given),7.8 nM
18,O=C(Nc1ccccc1)NC1C(=O)N(CCC2CCCC2)c2ccccc2N(c2ccccc2F)C1=O (stereo not given),0.724 nM
19,O=C(Nc1cccc(C2N=NN=N2)c1)NC1C(=O)N(c2ccccc2)c2ccccc2N(C2[C@H]3C[C@@H]4C[C@@H](C[C@H]2C4)C3)C1=O (stereo not given in full),2.1 nM
20,CCOC(=O)c1cccc(NC(=O)NC2C(=O)N(CC34C[C@H]5C[C@@H](C3)C[C@@H](C4)C5)c3ccccc3N(c3ccccc3)C2=O)c1 (stereo not given in full),3 nM
21,CC(C)(C)CCN1C(=O)C(NC(=O)Nc2cccc(C3N=NN=N3)c2)C(=O)N(c2ccccc2)c2ccccc21 (stereo not given),0.288 nM
22,CC(=O)Nc1cccc(NC(=O)NC2C(=O)N(CC34C[C@H]5C[C@@H](C3)C[C@@H](C4)C5)c3ccccc3N(c3ccccc3)C2=O)c1 (stereo not given in full),1.3 nM
